Test results as given in publication PMC3001719, “The heme sensing response regulator HssR in Staphylococcus aureus but not the homologous RR23 in Listeria monocytogenes modulates susceptibility to the antimicrobial peptide plectasin” (BMC Microbiology, 2010).

Assays:
[1] = system: L. monocytogenes wild type and response regulator mutant; assay: Antibiotic susceptibility, commercial MIC technique (Trek); assay type: cell-based, Listeria monocytogenes; settings: dehydrated antimicrobials in microtitre wells, data not shown
Protocol: (§1) Antimicrobial susceptibility to ampicillin, gentamicin, sulfa/trimethoprim, rifampicin, tetracycline, amoxy/clavulan, cephalotin, clindamycin, enrofloxacin, fusidic acid and oxacillin was performed with a commercially available MIC technique using dehydrated antimicrobials in microtitre wells (Trek Diagnostic Systems Ltd., UK).

[2] = system: S. aureus wild type and response regulator mutants; assay: as above; assay type: cell-based, Staphylococcus aureus; settings: dehydrated antimicrobials in microtitre wells, data not shown
Protocol: as §1

[3] = system: L. monocytogenes LO28 RR23 (rr23 insertion mutant); assay: MIC, microbroth dilution; assay type: cell-based, Listeria monocytogenes; settings: MHB pH 7.4, 5.0 × 10^5 CFU/ml, 18-24 h at 37°C, visual growth
Protocol: (§2) Protamine was purchased from Sigma (P4020-5G). Plectasin, eurocin, novicidin, and novispirin G10 were supplied by Department of Antiinfective Discovery, Novozymes A/S. The host defence peptides were dissolved in 0.01% acetic acid/0.1% bovine serum albumin (Sigma, A7906).
(§3) Minimal inhibitory concentrations (MIC) of plectasin, eurocin, protamine, novicidin, and novispirin G10 were determined using a microbroth dilution method. Colonies from a BHI plate incubated overnight at 37 °C were suspended in MHB pH 7.4 to an absorbance at 546 nm of 0.11-0.12 at 546 nm (approx. 1.0 × 10^8 CFU/ml) and diluted in MHB to a concentration of 5.0 × 10^5 CFU/ml. Ninety μl of bacterial suspension was incubated with 10 μl of peptide solution in polypropylene 96-well plates (Nunc, 442587) for 18-24 h at 37°C. The peptide solutions were made fresh on the day of assay. The range of concentrations assayed were 0.25-256 μg/ml for plectasin and eurocin, 0.125-128 μg/ml for protamine and novispirin G10, and 0.031-32 μg/ml for novicidin. MIC was the lowest peptide concentration at which visual growth was inhibited.

[4] = system: L. monocytogenes LO28 wild type; assay: MIC, microbroth dilution; assay type: cell-based, Listeria monocytogenes; settings: MHB pH 7.4, 5.0 × 10^5 CFU/ml, 18-24 h at 37°C, visual growth
Protocol: as §2, §3

[5] = system: S. aureus 8325-4 hssR (transduced mutant); assay: MIC, microbroth dilution; assay type: cell-based, Staphylococcus aureus; settings: transduced 8325-4 hssR mutant, MHB pH 7.4, 5.0 × 10^5 CFU/ml, 18-24 h at 37°C, visual growth
Protocol: as §2, §3

[6] = system: S. aureus 15981 ΔTCS15 (hssRS) deletion mutant; assay: MIC, microbroth dilution; assay type: cell-based, Staphylococcus aureus; settings: MHB pH 7.4, 5.0 × 10^5 CFU/ml, 18-24 h at 37°C, visual growth
Protocol: as §2, §3

[7] = system: S. aureus 8325-4 wild type; assay: MIC, microbroth dilution; assay type: cell-based, Staphylococcus aureus; settings: MHB pH 7.4, 5.0 × 10^5 CFU/ml, 18-24 h at 37°C, visual growth
Protocol: as §2, §3

[8] = system: S. aureus 15981 wild type; assay: MIC, microbroth dilution; assay type: cell-based, Staphylococcus aureus; settings: MHB pH 7.4, 5.0 × 10^5 CFU/ml, 18-24 h at 37°C, visual growth
Protocol: as §2, §3

[9] = system: S. aureus 8325-4 hssR::bursa transposon mutant; assay: MIC, microbroth dilution; assay type: cell-based, Staphylococcus aureus; settings: MHB pH 7.4, 5.0 × 10^5 CFU/ml, 18-24 h at 37°C, visual growth
Protocol: as §2, §3

S. aureus = assay: ATP leakage (intracellular and extracellular ATP, bioluminescence); assay type: cell-based, Staphylococcus aureus; settings: 50 mM HEPES pH 7.0 with 0.2% glucose, vs peptide dilution buffer, two independent experiments; for ATP leakage: S. aureus, 1,000 μg/ml peptide
Protocol: (§4) L. monocytogenes and S. aureus were grown in TSB at 37°C. Bacteria were harvested (10 min at 3000 RPM) at mid-exponential phase (absorbance at 546 nm of 2.5 ± 0.2 and 1.0 ± 0.2 for S. aureus and L. monocytogenes, respectively), washed once in 50 mM potassium phosphate buffer pH 7.0 and once in 50 mM HEPES buffer pH 7.0. The pellet was resuspended in 50 mM HEPES pH 7.0 to a final absorbance at 546 nm of 10. Bacteria were stored on ice and used within 5 hours. […] ATP was determined using a bioluminescence kit (Sigma, FLAA-1KT) and a BioOrbit 1253 luminometer. Total ATP content was determined by rapidly permeabilising 20 μl cell suspension with 80 μl dimethyl sulfoxide. The cell suspension was diluted in 4.9 ml sterile water, and ATP content was determined in 100 μl of the preparation as described by the manufacturer. To determine the extracellular ATP concentration, the 20 μl cell suspension was mixed with 80 μl sterile water and analyzed as described above. Intracellular ATP concentrations were calculated by using the intracellular volumes of 0.85 and 1.7 μm^3 for S. aureus and L. monocytogenes, respectively. The number of cells in suspension was determined by plate spreading.

L. monocytogenes = assay: as above; assay type: cell-based, Listeria monocytogenes; settings: 50 mM HEPES pH 7.0 with 0.2% glucose, vs peptide dilution buffer; for ATP leakage: L. monocytogenes, 1,000 μg/ml peptide
Protocol: as §4

[10] = system: hrtAB efflux system expression; settings: exposure to hemin, transcriptional activation by HssR; cited from earlier work
Description: Both HrtAB and HssRS are required for growth of S. aureus in hemin [14].

[11] = system: S. aureus 8325-4 hssR mutant; assay: Growth in TSB with plectasin and/or hemin; assay type: cell-based, Staphylococcus aureus; settings: hemin 4 μM, 37°C, with or without plectasin, hssR mutant
Protocol: (§5) Overnight cultures of S. aureus were diluted to an absorbance at 600 nm of 0.05 in TSB with and without 4 μM hemin and/or 35 μg/ml plectasin and grown at 37°C. Measurements of the absorbance were made every 30 minutes.

[12] = system: S. aureus 8325-4 wild type; assay: Growth in TSB with plectasin and/or hemin; assay type: cell-based, Staphylococcus aureus; settings: hemin 4 μM, 37°C, absorbance at 600 nm
Protocol: as §5

[13] = system: S. aureus 8325-4 hssR::bursa/pRMC2-hssRS (complementation of hssR transposon mutant); assay: MIC, microbroth dilution; assay type: cell-based, Staphylococcus aureus; settings: 8325-4 hssR::bursa/pRMC2-hssRS complemented mutant; microbroth dilution, MHB pH 7.4, 5.0 × 10^5 CFU/ml, 18-24 h at 37°C, visual growth
Protocol: as §2, §3

[14] = system: plasmid DNA (pBluescript II SK+); assay: DNA-binding analysis by in vitro gel retardation; settings: 100 ng plasmid DNA with increasing amounts of peptide, 1 h at room temperature, data not shown
Protocol: Gel retardation analysis were performed as described by Nan et al by mixing 100 ng of plasmid DNA (pBluescript II SK^+(Stratagene)) with increasing amounts of peptide in 20 μl binding buffer (5% glycerol, 10 mM Tris, 1 mM EDTA, 1 mM dithiothreitol, 20 mM KCL and 50 μg ml^-1 bovine serum albumin). Reaction mixtures were incubated 1 h at room temperature and subjected to 1% agarose gel electrophoresis and visualised using ethidium bromide.

Question: For `CC1(C)S[C@@H]2[C@H](NC(=O)[C@H](N)c3ccccc3)C(=O)N2[C@H]1C(=O)O` [ampicillin], which “Change in MIC, wild type vs response regulator mutant” value [1] is on record?
Answer: No change in MIC values

Question: What about the “Change in MIC, wild type vs response regulator mutants” value [2] of the same molecule?
Answer: No change in MIC values

Question: For `CNC(C)C1CCC(N)C(OC2C(N)CC(N)C(OC3OCC(C)(O)C(NC)C3O)C2O)O1` (centres unmarked) [gentamicin], which “Change in MIC, wild type vs response regulator mutant” value [1] is on record?
Answer: No change in MIC values

Question: And the “Change in MIC, wild type vs response regulator mutants” value [2]?
Answer: No change in MIC values

Question: Which MIC [3] does the source give for novicidin here?
Answer: 1 µg/mL

Question: What about the MIC [4] of the same molecule?
Answer: 1 µg/mL

Question: And the MIC [5]?
Answer: 1 µg/mL

Question: What about the MIC [6] of the same molecule?
Answer: 1 µg/mL

Question: And the MIC [7]?
Answer: 1 µg/mL

Question: And the MIC [8]?
Answer: 1 µg/mL

Question: And the MIC [9]?
Answer: 1 µg/mL

Question: And the ATP leakage (S. aureus)?
Answer: increased ATP leakage

Question: What about the ATP leakage (L. monocytogenes) of the same molecule?
Answer: increased ATP leakage

Question: Which results are given for hemin?
Answer: Increase of expression of hrtAB efflux system [10]: 45 fold; Growth in the presence of hemin [11]: almost completely inhibited; Growth in the presence of hemin [12]: only affected by plectasin (35 μg/ml) and not hemin

Question: For `CO[C@H]1/C=C/O[C@@]2(C)Oc3c(C)c(O)c4c(O)c(c(/C=N/N5CCN(C)CC5)c(O)c4c3C2=O)NC(=O)/C(C)=C\C=C\[C@H](C)[C@H](O)[C@@H](C)[C@@H](O)[C@@H](C)[C@H](OC(C)=O)[C@@H]1C` [rifampicin], which “Change in MIC, wild type vs response regulator mutant” value [1] is on record?
Answer: No change in MIC values

Question: What about the “Change in MIC, wild type vs response regulator mutants” value [2] of the same molecule?
Answer: No change in MIC values

Question: What does the source list for protamine?
Answer: MIC [3]: 16 µg/mL; MIC [4]: 16 µg/mL; MIC [5]: 16 µg/mL; MIC [6]: 16 µg/mL; MIC [7]: 16 µg/mL; MIC [8]: 16 µg/mL; MIC [9]: 16 µg/mL; ATP leakage (S. aureus): increased ATP leakage; ATP leakage (L. monocytogenes): increased ATP leakage

Question: Which “Change in MIC, wild type vs response regulator mutant” value [1] does the source give for `CCC[C@@H]1C[C@@H](C(=O)N[C@@H]([C@H]2O[C@H](SC)[C@H](O)[C@@H](O)[C@H]2O)[C@H](C)Cl)N(C)C1` [clindamycin] here?
Answer: No change in MIC values

Question: What about the “Change in MIC, wild type vs response regulator mutants” value [2] of the same molecule?
Answer: No change in MIC values

Question: With `Cc1onc(-c2ccccc2)c1C(=O)N[C@@H]1C(=O)N2[C@@H]1SC(C)(C)[C@@H]2C(=O)O` [oxacillin] as the molecule, how does the “Change in MIC, wild type vs response regulator mutant” value [1] read?
Answer: No change in MIC values

Question: What about the “Change in MIC, wild type vs response regulator mutants” value [2] of the same molecule?
Answer: No change in MIC values

Question: With `CC(=O)O[C@H]1C[C@@]2(C)[C@@H](C[C@@H](O)[C@H]3[C@@]4(C)CC[C@@H](O)[C@@H](C)[C@@H]4CC[C@@]32C)/C1=C(\CCC=C(C)C)C(=O)O` [fusidic acid] as the molecule, how does the “Change in MIC, wild type vs response regulator mutant” value [1] read?
Answer: No change in MIC values

Question: What about the “Change in MIC, wild type vs response regulator mutants” value [2] of the same molecule?
Answer: No change in MIC values

Question: Which “Change in MIC, wild type vs response regulator mutant” value [1] does the source give for `CN(C)[C@@H]1C(O)=C(C(N)=O)C(=O)[C@@]2(O)C(O)=C3C(=O)c4c(O)cccc4[C@@](C)(O)[C@H]3C[C@@H]12` [tetracycline] here?
Answer: No change in MIC values

Question: What about the “Change in MIC, wild type vs response regulator mutants” value [2] of the same molecule?
Answer: No change in MIC values

Question: Which MIC [3] does the source give for novispirin G10 here?
Answer: 16 µg/mL

Question: And the MIC [4]?
Answer: 16 µg/mL

Question: What about the MIC [7] of the same molecule?
Answer: 128 µg/mL

Question: What about the MIC [8] of the same molecule?
Answer: >128 µg/mL

Question: With `CCN1CCN(c2cc3c(cc2F)c(=O)c(C(=O)O)cn3C2CC2)CC1` [enrofloxacin] as the molecule, how does the “Change in MIC, wild type vs response regulator mutant” value [1] read?
Answer: No change in MIC values

Question: And the “Change in MIC, wild type vs response regulator mutants” value [2]?
Answer: No change in MIC values

Question: Which MIC [4] does the source give for eurocin here?
Answer: 128 µg/mL

Question: What about the MIC [5] of the same molecule?
Answer: 64 µg/mL

Question: What about the MIC [6] of the same molecule?
Answer: 32 µg/mL

Question: And the MIC [13]?
Answer: 32 µg/mL

Question: What about the MIC [7] of the same molecule?
Answer: 32 µg/mL

Question: And the MIC [8]?
Answer: 8 µg/mL

Question: What about the MIC [9] of the same molecule?
Answer: 64 µg/mL

Question: And the “ATP leakage (intracellular ATP concentration)” value (S. aureus; S. aureus, 500 μg/ml peptide)?
Answer: remained at the same level as the controls

Question: What about the “Binding to DNA” value [14] of the same molecule?
Answer: unable to demonstrate binding

Question: What about the “ATP leakage (intracellular ATP concentration)” value (L. monocytogenes; L. monocytogenes, 500 μg/ml peptide) of the same molecule?
Answer: remained at the same level as the controls

Question: For `CC(=O)OCC1=C(C(=O)O)N2C(=O)[C@@H](NC(=O)Cc3cccs3)[C@H]2SC1` [cephalotin], which “Change in MIC, wild type vs response regulator mutant” value [1] is on record?
Answer: No change in MIC values

Question: What about the “Change in MIC, wild type vs response regulator mutants” value [2] of the same molecule?
Answer: No change in MIC values
